Data from patent publication US4184849A, “Mixed agglutination” (Technicon Instruments Corporation, priority 1977, dated 1980).

Assays:
Assay type in all cases: binding
sheep anti-digoxin serum [1] = experiment: assay of digoxin by mixed agglutination of Ab-latex and conjugate-latex, selective optical counting of unagglutinated particles; settings: Table 1
Procedure: This Example illustrates the assay of digoxin.
(§1) Latex particles (0.09μ diameter, polystyrene, Dow Chemical Co.) as a 10% by weight suspension as supplied) was diluted 20-fold in dilute glycine-buffered saline (dGBS-20 mM glycine, 34 mM NaCl, pH 9) containing 0.2 mg/ml of the Rivanol-soluble fraction (prepared by the method of Stastny and Horejsi, Clin. Chim. Acta (1961), 6, 782) of sheep anti-digoxin serum, and incubated at room temperature for 30 minutes. 1/10th volume of 10 mg bovine serum albumin (bSA) per ml. dGBS was then added (to ensure that the latex was completely coated with protein), and after a further 30 minutes incubation, the coated latex was washed twice by centrifugation and resuspended in dGBS. Finally, the coated latex was resuspended as a 0.5% suspension in GBS (0.1 M glycine, 0.17 M NaCl, pH 9) containing 1 mg bSA/ml.
(§2) The same procedure was followed as in (a) except that the latex used was of 1.1μ diameter and incubation was performed at an Ag-conjugate concentration of 4μg/ml, followed by the addition of 1/10 volume of 10 mg/ml transferrin. The Ag-conjugate was prepared by the oxidative coupling of digoxin and ethylene glycol followed by reductive coupling of this complex to the protein. 50 mg digoxin dissolved in 2 ml absolute alcohol was incubated for 25 minutes with 2 ml 0.1 M NalO4, then 60 μl of ethylene glycol was added for a further 5 minutes incubation. This reaction mixture was then added to a solution of 60 mg human transferrin in 2 ml water, brought to pH 9.5 by addition of 5% Na2 CO3, and incubated for 45 minutes. 30 mg NaBH4 freshly dissolved in 2 ml water was added and incubation was continued for 3 hours. At the end of this time, the pH of the reaction mixture was reduced to 6.5 by addition of 1 M HCOOH to destroy any unreacted NaBH4, and after a further hour of incubation, 1 M NH4 OH was added to raise the pH to 8.5, and the preparation was dialysed against running water for 2 days at 4° C. (all other operations were at room temperature).
(§3) Sera used for the assay of digoxin were first heated with acid to reduce serum intereference. 25 μl of serum was heated to 56° C. for 10 minutes with 25 μl of 0.1 N HCl, then made alkaline by the addition of 10 μl 2 M Na2 CO3. To these heated sera were added 25 μl of Ab-latex (diluted 1:10 with GBS containing 1 mg bSA/ml) and 25 μl of conjugate-latex (diluted 1:4 with GBS containing 1 mg human transferrin/ml). They were then incubated in vertically-positioned tubes agitated horizontally on a shaking incubator for 15 minutes at room temperature. At the end of this time, the tube contents were diluted with 5 ml GBS and after a further 20-fold dilution with GBS containing 0.01% Tween 20, passed through the flowcell of a Technicon Autocounter at 2 ml/min. The relative numbers of unagglutinated (monomer) latex particles in each sample were determined (as also may be the relative numbers of agglutinated particles) by selective optical counting.
In the selective optical counting of particles, the amount of light scattered by a particle is dependent on the size of the particle; in turn, the electronic impulse generated in the photocell will be proportional to the size of the particle, and particles of different sizes may be counted separately. Table 2 illustrates the improvement in precision of determination (by providing a more extended range for the standard curve) that may be obtained by counting only unagglutinated particles (monomers) as opposed to counting all particles (total). […]

sheep anti-digoxin serum [2] = experiment: latex immunoassay of digoxin read by turbidimetry (optical density at 400 nm)
sheep anti-digoxin serum [3] = experiment: Example 3: digoxin mixed agglutination with equal-sized or different-sized latex
Procedure: as §1, §2, §3
Example 1 was repeated using latex particles of the same (as opposed to different) size and the following results were obtained: […]

sheep anti-digoxin serum [4] = experiment: assay of digoxin by mixed agglutination of Ab-latex and conjugate-latex, selective optical counting of unagglutinated particles; settings: Table 3
[5] = system: rabbit anti-thyroxine (T4) serum; experiment: assay of thyroxine by mixed agglutination; settings: maximum = Ag-latex alone
Procedure: This Example illustrates the assay of thyroxine. […] After incubation at 0° for 1 hour, 250 μl of 25% ethanolamine in PBS was added, and the incubation prolonged for 30 minutes. The latex was then washed twice by centrifugation and resuspension in fresh PBS (1 ml each time), and then dialysed for 16 hours at 4° against 1 l PBS. […] The method of this latex preparation was exactly the same as for the assay of digoxin (Example 1) except that the Ab was from rabbit anti-thyroxine (T4) serum. […] The maximum value in this case was for the Ag-latex alone, all the above values being found in the presence of Ag-latex as well.

[6] = latex immunoassay of hPL, comparison of counting methods; settings: 2.5 ngs hPL/ml
Text: In the selective optical counting of particles, the amount of light scattered by a particle is dependent on the size of the particle; in turn, the electronic impulse generated in the photocell will be proportional to the size of the particle, and particles of different sizes may be counted separately. Table 2 illustrates the improvement in precision of determination (by providing a more extended range for the standard curve) that may be obtained by counting only unagglutinated particles (monomers) as opposed to counting all particles (total). The Table also illustrates the great increase in sensitivity that may be realized by calculating the ratio of unagglutinated to agglutinated particles (monomer/polymer ratio). By counting particles at all, an increase in sensitivity and precision may be realized by comparison with other methods of end-point determination.

C[C@H]1O[C@@H](O[C@H]2[C@@H](O)C[C@H](O[C@H]3[C@@H](O)C[C@H](O[C@H]4CC[C@@]5(C)[C@H](CC[C@@H]6[C@@H]5C[C@@H](O)[C@]5(C)[C@@H](C7=CC(=O)OC7)CC[C@]65O)C4)O[C@@H]3C)O[C@@H]2C)C[C@H](O)[C@@H]1O [Digoxin, digoxin]
Unagglutinated Particles (as % of maximum) (sheep anti-digoxin serum [1]; digoxin 0.31 ng/ml in serum): 40% | Unagglutinated Particles (as % of maximum) (sheep anti-digoxin serum [1]; digoxin 0.625 ng/ml in serum): 44% | Unagglutinated Particles (as % of maximum) (sheep anti-digoxin serum [1]; digoxin 1.25 ng/ml in serum): 63% | Unagglutinated Particles (as % of maximum) (sheep anti-digoxin serum [1]; digoxin 2.5 ng/ml in serum): 90% | Unagglutinated Particles (as % of maximum) (sheep anti-digoxin serum [1]; digoxin 5.0 ng/ml in serum): 100% | Turbidity (sheep anti-digoxin serum [2]; digoxin 0.31 ng/ml in serum): 74 percentage of that found in th | Turbidity (sheep anti-digoxin serum [2]; digoxin 0.625 ng/ml in serum): 71 percentage of that found in th | Turbidity (sheep anti-digoxin serum [2]; digoxin 1.25 ng/ml in serum): 82 percentage of that found in th | Turbidity (sheep anti-digoxin serum [2]; digoxin 2.5 ng/ml in serum): 100 percentage of that found in th | Turbidity (sheep anti-digoxin serum [2]; digoxin 5.0 ng/ml in serum): 100 percentage of that found in th | Unagglutinated Particles (as % of maximum) (sheep anti-digoxin serum [3]; Different-sized latex, digoxin 1 ng/ml in serum): 30% | Unagglutinated Particles (as % of maximum) (sheep anti-digoxin serum [3]; Different-sized latex, digoxin 4 ng/ml in serum): 76% | Unagglutinated Particles (as % of maximum) (sheep anti-digoxin serum [3]; Different-sized latex, digoxin 10 ng/ml in serum): 100% | Unagglutinated Particles (as % of maximum) (sheep anti-digoxin serum [3]; Equal-sized latex, digoxin 1 ng/ml in serum): 78% | Unagglutinated Particles (as % of maximum) (sheep anti-digoxin serum [3]; Equal-sized latex, digoxin 4 ng/ml in serum): 95% | Unagglutinated Particles (as % of maximum) (sheep anti-digoxin serum [3]; Equal-sized latex, digoxin 10 ng/ml in serum): 100% | Particle count (monomers) (sheep anti-digoxin serum [4]; digoxin 0.31 ng/ml in serum): 40 percentage of that found in th | Particle count (monomers) (sheep anti-digoxin serum [4]; digoxin 0.625 ng/ml in serum): 44 percentage of that found in th | Particle count (monomers) (sheep anti-digoxin serum [4]; digoxin 1.25 ng/ml in serum): 63 percentage of that found in th | Particle count (monomers) (sheep anti-digoxin serum [4]; digoxin 2.5 ng/ml in serum): 90 percentage of that found in th | Particle count (monomers) (sheep anti-digoxin serum [4]; digoxin 5.0 ng/ml in serum): 100 percentage of that found in th

N[C@@H](Cc1cc(I)c(Oc2cc(I)c(O)c(I)c2)c(I)c1)C(=O)O [T4, thyroxine]
Particle concentration (% maximum) ([5]; 10 ng T4/ml serum): 51.5% | Particle concentration (% maximum) ([5]; 50 ng T4/ml serum): 59.5% | Particle concentration (% maximum) ([5]; 200 ng T4/ml serum): 89%

B1: hPL: human placental lactogen (protein, UniProt P0DML2 27-217, looked up)
Chorionic somatomammotropin …: VQTVPLSRLFDHAMLQAHRAHQLAIDTYQEFEETYIPKDQKYSFLHDSQTSFCFSDSIPTPSNMEETQQKSNLELLRISLLLIESWLEPVRFLRSMFANNLVYDTSDSDDYHLLKDLEEGIQTLMGRLEDGSRRTGQILKQTYSKFDTNSHNHDALLKNYGLLYCFRKDMDKVETFLRMVQCRSVEGSCGF
Monomer/polymer ratio [6]: 81 percentage of that obtained in
